Measured values: PMC8767159, “Multiparameter Optimization of Trypanocidal Cruzain Inhibitors With In Vivo Activity and Favorable Pharmacokinetics” (Frontiers in Pharmacology, 2022)
Like-named read-outs stand apart in the source and are kept apart here.

How the values were obtained:
[1] = Experimental distribution coefficient (eLogD) by LC retention time; format: physicochemical; conditions: for chromatographic logD: C18 column (LC retention time)
Procedure: For the eLogD assays ([Waring, 2010]), each compound (5 μl) from a 5 mM stock solution was diluted in 245 μl of a solution containing buffers A (5% MeOH, 10 mM ammonium acetate, pH 7.4) and B (100% MeOH, pH 7.4) (50:50). Nine control compounds with known eLogD and column retention times (acyclovir, atenolol, antipyrine, fluconazole, metoprolol, carbamazepine, ketoconazole, tolnaftate, and amiodarone; eLogD values ranging from −1.86 to 6.1) were subjected to LC-MS/MS in triplicate before and after the analysis of the test compounds. Retention times were recorded for each control and test compound in a C18 column. The retention time of each control compound was plotted against the respective eLogD values described in the literature ([Lombardo et al., 2002]; [Lombardo et al., 2004]; [Alelyunas et al., 2010]). The resulting linear equation (y = mx + b) was used to calculate the eLogD values of the test compounds, in which x is the retention time in minutes and y is the eLogD value.

[2] = Fraction unbound by equilibrium dialysis; format: in vitro ADME; conditions: pH 7.4
Procedure: The fraction unbound (fu) ([Masimirembwa et al., 2003]) of the test compounds was determined after incubation with different media, namely, plasma, microsomes, and buffer with 10% FCS. Equilibrium dialysis was performed in a 96-well plate (HT-Dialysis, Gales Ferry, CT) in which each well was divided by a semipermeable membrane (12–14 kDa cutoff). The test compounds diluted in either plasma, microsome suspension, or buffer were added to one side of the membrane. Potassium phosphate buffer (50 mM, pH 7.4) was added to the other side of the membrane. A standard curve was used to calculate the compound concentration (fu) on each side of the membrane. Stock solutions of each compound were prepared in 100% DMSO to obtain a final concentration of 1 mM. The following compound concentrations were used: 1, 2, 20, 200, 2,000 and 5,000 nM. To 500 μl of medium, 0.5 μl of the compound stock solution was added, and this was applied to one side of the well. Each compound was evaluated in triplicate. Next, the plate was assembled, sealed, and incubated at 37°C under rotation (150 rpm) for 4 h. After the incubation period, the plates were subjected to LC-MS/MS.

[3] = molecular target: T1, cruzain (Trypanosoma cruzi, UniProt P25779); experiment: Cruzain enzyme inhibition assay (cleavage of fluorogenic substrate Z-FR-AMC); format: biochemical; conditions: for inhibition at 100 µM: compound 100 µM, mean of three measures
T1 construct: made in house; host or cells: Escherichia coli (strain M15)
Procedure: Pro-cruzain truncated at the C-terminus was expressed and purified using a previously described protocol ([Ferreira et al., 2019]). Escherichia coli (strain M15) cultures were grown overnight at 37°C and 200 rpm in Luria Bertani (LB) medium supplemented with ampicillin (100 μg/ml) and kanamycin (50 μg/ml). Next, the cultures were diluted 10-fold in fresh LB medium supplemented with 0.5 M NaCl, 0.2% glucose, 1 mM betaine, 0.5 M sorbitol, 100 μg/ml ampicillin, and 50 μg/ml kanamycin and incubated at 37°C and 200 rpm. At an optical density (OD600) of 0.9, the cultures were incubated at 47°C for 20 min to promote the expression of chaperones. Then, the expression of cruzain was induced by adding isopropyl β-D-thiogalactopyranoside (IPTG) to a final concentration of 0.2 mM, which was followed by overnight incubation of the cultures at 20°C and 200 rpm. Next, the cultures were centrifuged (5,000 rpm, 30 min, 4°C), and the cells were suspended in 50 ml of lysis buffer (300 mM NaCl, 50 mM Tris-HCl, and 1.6 mg/ml lysozyme, pH 8.0) per liter of culture and lysed by sonication (12 cycles of 30 s). This cell lysate was centrifuged (9,000 rpm, 30 min, 4°C), and the supernatant was collected. Cruzain was precipitated by incubation with 35% ammonium sulfate (2 h), and this suspension was centrifuged at 9,000 rpm for 30 min at 4°C. The precipitated cruzain was resuspended in lysis buffer, and the sample was dialyzed to eliminate ammonium sulfate. The soluble fraction of the dialysate was loaded on a Ni−NTA column (Qiagen, Hilden, Germany), and the contaminants were washed using washing buffer (300 mM NaCl, 50 mM Tris-HCl, and 10 mM imidazole, pH 8.0). Cruzain was eluted by applying an increasing imidazole gradient: 25, 50, 75, 100, and 250 mM. The fractions containing cruzain were pooled together and dialyzed against 1.5 L of 0.1 M acetate buffer, pH 5.5, and then concentrated to 0.5 mg/ml. Pro-cruzain was activated by incubation with activation buffer (100 mM sodium acetate, pH 5.5, 10 mM EDTA, 5 mM DTT, and 1 M NaCl) at 37°C. […] After activation, the enzyme was diluted 20-fold in binding buffer (20 mM sodium phosphate and 150 mM NaCl, pH 7.2) and added to thiopropyl Sepharose 6B resin (GE Healthcare Life Sciences, Pittsburgh, PA). After overnight incubation at 4°C, the resin was loaded on a column, and cruzain was eluted with binding buffer supplemented with 20 mM DTT. Fractions containing cruzain were pooled together and stored in 0.1 M sodium acetate, pH 5.5, at −80°C.
Cruzain activity was followed by monitoring the cleavage of the fluorogenic substrate Z-Phe-Arg-aminomethyl coumarin (Z-FR-AMC), as previously described ([Ferreira et al., 2019]), using 96-well flat-bottom black plates and wavelengths of 355 nm for excitation and 460 nm for emission. All cruzain assays were performed in 0.1 M sodium acetate buffer with 5 mM dithiothreitol (DTT) and 0.01% Triton X-100, pH 5.5. […] The cleavage of the substrate was monitored for 5 min, and the activity was calculated based on the initial reaction rates compared with the rate of a DMSO control at 30°C. The IC50 values were independently calculated by considering the rate measurements for at least six inhibitor concentrations, each evaluated in triplicate. To determine the mechanism of cruzain inhibition, eight concentrations of the substrate Z-FR-AMC and four concentrations of the inhibitor were employed, each in triplicate. Kinetic parameters were determined using the SigmaPlot (Systat Software Inc., Erkrath, Germany) enzyme kinetics module. Compounds were tested in two or three independent experiments. All enzyme assays were performed using varying Triton X-100 concentrations (0, 0.01, and 0.1%) ([Ferreira et al., 2009]). Compound concentrations were 100 μM in the single-dose percentage inhibition assays.

[4] = Table 5, fraction unbound used to correct CLint
[5] = Table 6, fraction unbound used to correct plasma clearance
[6] = 1.5 nM cruzain, 5.0 µM Z-FR-AMC, mean ± SD of 2–3 assays, read-out: IC50 (µM) against cruzain
[7] = Table S6, fraction unbound used to correct plasma clearance

T1 sequence (P25779 123-337 limits assumed): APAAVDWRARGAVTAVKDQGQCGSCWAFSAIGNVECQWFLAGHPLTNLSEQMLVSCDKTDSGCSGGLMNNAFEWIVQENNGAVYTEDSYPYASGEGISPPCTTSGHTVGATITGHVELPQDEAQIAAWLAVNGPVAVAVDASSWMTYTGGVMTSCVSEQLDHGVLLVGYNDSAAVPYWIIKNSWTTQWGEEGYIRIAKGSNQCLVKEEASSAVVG

SMILES | chromatographic logD ([1]; pH 7.4, Table 5) | fraction unbound at 4 h, 1 µM [2, 4] | fraction unbound at 4 h, 1 µM [2, 5] | inhibition at 100 µM [3] | fraction unbound at 4 h, 1 µM ([2]; Table S5, fraction unbound) | eLogD ([1]; Table S5) | IC50 [3, 6] | further results
O=C(CCc1ccccc1Br)NCCc1nc2ccccc2[nH]1 [Compound 36] | 3.8 | 0.8 | 0.04 |  |  |  |  | 
O=C(COc1cccc(NC(=O)CCCO)c1)NCCc1nc2ccccc2[nH]1 [Compound 7] |  |  |  | 75% | 1 |  |  | chromatographic logD ([1]; pH 7.4, Table S5): 2.23
CC(=O)Nc1ccc(OCC(=O)NCCc2nc3ccccc3[nH]2)cc1 [Compound 2] |  |  |  | 79% | 1 | 1.92 | 4.5 ± 0.5 µM | chromatographic logD ([1]; pH 7.4, Table 3, pH 7.4): 1.92; fraction unbound at 4 h, 1 µM [2, 7]: 0.49
O=C(Cn1ccnc1[N+](=O)[O-])NCc1ccccc1 [BZ, benznidazole, reference compound] | 0.8 | 1 | 0.99 |  |  | 0.84 |  | chromatographic logD ([1]; pH 7.4, Table 3, pH 7.4): 0.84
O=C(COc1ccccc1)NCCc1nc2ccccc2n1CCOCc1ccccc1 [Compound 21] |  |  |  | 76% | 0.47 |  | 1.69 ± 0.4 µM | chromatographic logD ([1]; pH 7.4, Table S5): 4.24; % cruzain inhibition, 0% Triton ([3]; Table S1, 0% Triton X-100): 80.3 ± 1.4%; % cruzain inhibition, 0.01% Triton ([3]; Table S1, 0.01% Triton X-100): 85.5 ± 2.3%; % cruzain inhibition, 0.1% Triton ([3]; Table S1, 0.1% Triton X-100): 84.6 ± 1.3%
O=C(COc1ccc2c(C(=O)O)cccc2c1)NCCc1nc2ccccc2[nH]1 [Compound 15] |  |  |  | 58% | 1 |  | > 100 µM | chromatographic logD ([1]; pH 7.4, Table S5): 1.31
CC(=O)Nc1cccc(OCC(=O)NCCc2nc3ccccc3[nH]2)c1 [Compound 3] |  |  |  | 70% | 1 | 2.26 | 28.1 ± 3.1 µM | chromatographic logD ([1]; pH 7.4, Table 3, pH 7.4): 2.26; fraction unbound at 4 h, 1 µM [2, 7]: 0.16
O=C(COc1ccccc1)NCCc1nc2ccccc2n1-c1ccccc1 [Compound 30] |  |  |  | 79% | 0.63 |  | 8.6 ± 2.6 µM | chromatographic logD ([1]; pH 7.4, Table S5): 4.04
O=C(COc1ccccc1Br)NCCc1nc2ccccc2[nH]1 [Compound 18] | 3.9 | 0.6 | 0.03 |  |  |  |  | 
O=C(COc1ccc2cc(O)ccc2c1)NCCc1nc2ccccc2[nH]1 [Compound 10] |  |  |  | 90% | 0.82 | 3.17 | 3.4 ± 0.9 µM | chromatographic logD ([1]; pH 7.4, Table 3, pH 7.4): 3.17; fraction unbound at 4 h, 1 µM [2, 7]: 0.34
O=C(COc1ccc(NC(=O)CCCO)cc1)NCCc1nc2ccccc2[nH]1 [Compound 5] |  |  |  | 87% | 0.96 |  |  | chromatographic logD ([1]; pH 7.4, Table S5): 1.83
C=CCCn1c(CCNC(=O)COc2ccccc2)nc2ccccc21 [Compound 27] |  |  |  | 79% | 0.86 | 3.75 | 13.7 ± 1.4 µM | chromatographic logD ([1]; pH 7.4, Table 3, pH 7.4): 3.75; IC50 ([3]; Table S2, substrate 2.5 µM, read-out: IC50 (µM) cruzain at [S] 2.5 µM): 12.4 ± 2.2 µM; IC50 ([3]; Table S2, substrate 5 µM, read-out: IC50 (µM) cruzain at [S] 5 µM): 7.5 ± 1.2 µM; IC50 ([3]; Table S2, substrate 10 µM, read-out: IC50 (µM) cruzain at [S] 10 µM): 14.7 ± 1.8 µM; IC50 ([3]; Table S2, substrate 15 µM, read-out: IC50 (µM) cruzain at [S] 15 µM): 11.2 ± 1.5 µM; IC50 ([3]; Table S2, substrate 20 µM, read-out: IC50 (µM) cruzain at [S] 20 µM): 10.2 ± 1.5 µM; IC50 ([3]; Table S2, substrate 40 µM, read-out: IC50 (µM) cruzain at [S] 40 µM): 8.9 ± 3.1 µM; Mechanism of cruzain inhibition (Lineweaver-Burk plots) ([3]; eight substrate and four inhibitor concentrations): noncompetitive
O=C(COc1ccc2ccc(O)cc2c1)NCCc1nc2ccccc2[nH]1 [Compound 11] |  |  |  | 96% | 0.67 | 3.37 | 2.7 ± 0.7 µM | eLogD ([1]; Table 3, pH 7.4): 2.26; fraction unbound at 4 h, 1 µM [2, 7]: 0.03
O=C(COc1ccccc1[N+](=O)[O-])NCCc1nc2ccccc2[nH]1 [Compound 32] | 3.6 | 0.7 | 0.04 |  |  |  |  | 
Cc1ccccc1OCC(=O)NCCc1nc2ccccc2[nH]1 [Compound 17] | 3.6 | 0.8 | 0.06 |  |  |  |  | 
O=C(COc1ccc2ccccc2c1)NCCc1nc2ccccc2[nH]1 [Compound 35] | 3.9 | 0.5 | 0.02 |  |  |  |  | 
O=C(COc1ccc2ccccc2c1Br)NCCc1nc2ccccc2[nH]1 [Compound 34] | 4.4 | 0.1 |  |  |  |  |  | 
N#Cc1ccccc1OCC(=O)NCCc1nc2ccccc2[nH]1 [Compound 31] | 2.6 | 0.9 | 0.15 |  |  |  |  | 
COc1ccc2cc(OCC(=O)NCCc3nc4ccccc4[nH]3)ccc2c1 [Compound 12] |  |  |  | 100% |  | 3.89 | 2.3 ± 0.6 µM | chromatographic logD ([1]; pH 7.4, Table 3, pH 7.4): 3.89
Cc1ccccc1OCC(=O)NCCc1nc2ccccc2o1 [Compound 37] | 3.9 | 0.9 | 0.05 |  |  |  |  | 
O=C(COc1ccc(Br)cc1)NCCc1nc2ccccc2[nH]1 [Compound 33] | 2.8 | 0.8 | 0.16 |  |  |  |  | 
C=CCCn1c(CCNC(=O)COc2ccccc2Cl)nc2ccccc21 [Compound 38] | 4.1 | 0.5 | 0.01 |  |  |  |  | 
